The source of these data is article PMC3283556, “The Activities of Current Antimalarial Drugs on the Life Cycle Stages of Plasmodium: A Comparative Study with Human and Rodent Parasites” (PLoS Medicine, 2012).

Molecules are shown by their SMILES. Entries after “also recorded” stand apart in the source; their conditions may differ.

Broadly, the IC50 is the point on the concentration scale where inhibition reaches its midpoint. The term inhibition denotes the percentage by which the read-out fell short of the control. A higher inhibition goes with strong suppression.

In series [1] the test system is P. falciparum asexual blood stage parasites (strains NF54, D6, K1, W2, 7G8, TM90C2A, V1/S). Nature of the series: [3H]-hypoxanthine incorporation growth inhibition assay, asexual blood stage. The class given is cell-based, Plasmodium falciparum. Particulars: Plasmodium falciparum.
Series [2] has as its system P. berghei oocyst formation. Nature of the series: Standard membrane feed assay, P. berghei oocysts in A. stephensi. The class given is in vivo, Plasmodium berghei. The conditions noted are these: for transmission-blocking effect on P. berghei oocysts (words): 10 µM.
The next series has as its system HepG2 cells. Nature of the series: Growth retardation of HepG2 cells. Particulars: for IC50: Homo sapiens, HepG2, read-out: IC50 HepG2.
Series [3] relates to P. berghei ookinete formation. In words: P. berghei ookinete development assay. The conditions noted are these: 10 µM. The class given is cell-based, Plasmodium berghei.

Consider `COc1cc(N[C@H](C)CCCN)c2nccc(C)c2c1Oc1ccc(Cl)c(Cl)c1` [NPC-1161B], for which the IC50 was approximately 0.05 µM in series [1] (strain 7G8), approximately 0.5 µM in series [1] (strain NF54) and 0.84 ± 0.46 µM in the series on HepG2 cells. Besides, the “transmission-blocking effect on P. berghei oocysts (words)” value in series [2] was “most notable transmission-blocking activity; also recorded: showed potency”. The inhibition at 10 µM in series [2] (Plasmodium berghei) is more than 90%. Further, in the series on HepG2 cells (IC50 HepG2 compared to IC50 parasite), the “CI (cytotoxicity index)” value was found to be 1.17. Also, in series [3], the “effect on ookinete formation” value was “all assays except the ookinete assay”.
For `CCCCN(CCCC)CCC(O)c1cc2c(Cl)cc(Cl)cc2c2cc(C(F)(F)F)ccc12` (stereo not drawn) [halofantrine], the IC50 in series [1] was less than 0.004 µM; in series [1] (multi-drug-resistant strains K1, W2 and 7G8), 0.0003 µM; with HepG2 cells it was less than 5.66 µM. In addition, the “transmission-blocking effect on P. berghei oocysts (words)” value in series [2] was “impaired sporogony”. In addition, the “CI (cytotoxicity index)” value with HepG2 cells (human, 48 h) is listed as less than 2.44.
